According to patent EP4603105A1, “PHARMACEUTICAL COMPOSITION CONTAINING CYCLIC COMPOUND HAVING SELECTIVE KRAS INHIBITORY EFFECT AGAINST HRAS AND NRAS” (CHUGAI SEIYAKU KABUSHIKI KAISHA, priority 2022, dated 2024):
*1 amine or outer side, *2 acyl side, *3 side chain or, on linkers, in order; H or OH if unused. Where a SMILES comes first, the peptide text is derived from it. Bridges are numbered along the chain shown (N, C = ends). [ ]: non-standard residue; d: D form. The star is where a group is joined. hPhe(3,5-F2-4-CF3) = N[C@@H](CCc1cc(F)c(C(F)(F)F)c(F)c1)C(=O)O; hPhe(3-Cl-4-CF3) = N[C@@H](CCc1ccc(C(F)(F)F)c(Cl)c1)C(=O)O; NPrPhe(4-CF3) = CCCN[C@@H](Cc1ccc(C(F)(F)F)cc1)C(=O)O; X26 = CCCN([C@@H](Cc1ccc(F)cc1)C(=O)[*:2])[*:1]; NMeGly(cPent) = CN[C@H](C(=O)O)C1CCCC1; Nva(3-Et) = CCC(CC)[C@H](N)C(=O)O; Hyp = O=C(O)[C@@H]1C[C@@H](O)CN1; NMeD = CN[C@@H](CC(=O)O)C(=O)O; NMeL = CN[C@@H](CC(C)C)C(=O)O; Morpholide = C1CN(*)CCO1; Ac5c = NC1(C(=O)O)CCCC1; Aze = O=C(O)[C@@H]1CCN1; Ac4c = NC1(C(=O)O)CCC1; Sar = CNCC(=O)O

Key:
[1] = molecular target: GDP-bound NRAS wild-type protein (Homo sapiens, UniProt P01111); test: Binding to NRAS by surface plasmon resonance (SPR), KD and KD ratio to KRAS
Sequence of GDP-bound NRAS wild-type protein (P01111 whole entry): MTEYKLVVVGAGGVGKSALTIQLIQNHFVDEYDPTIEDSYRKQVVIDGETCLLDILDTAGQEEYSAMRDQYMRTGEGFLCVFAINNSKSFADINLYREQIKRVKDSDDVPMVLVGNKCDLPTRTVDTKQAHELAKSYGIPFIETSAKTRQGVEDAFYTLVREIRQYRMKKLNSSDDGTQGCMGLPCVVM
Outline: (§1)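 Compound binding is evaluated by SPR single-cycle kinetics, with concentrations added intermittently from low to high for 75 s each. Target surfaces carry GDP-loaded biotinylated Avi-RAS at about 100–300 RU, regenerated after each cycle; temperature 30°C. A 1:1 binding model gives KD.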

HRAS wild-type protein = HRAS wild-type protein (Homo sapiens, UniProt P01112); test: Binding to HRAS by surface plasmon resonance (SPR), KD and KD ratio to KRAS
Sequence of HRAS wild-type protein (P01112 whole entry): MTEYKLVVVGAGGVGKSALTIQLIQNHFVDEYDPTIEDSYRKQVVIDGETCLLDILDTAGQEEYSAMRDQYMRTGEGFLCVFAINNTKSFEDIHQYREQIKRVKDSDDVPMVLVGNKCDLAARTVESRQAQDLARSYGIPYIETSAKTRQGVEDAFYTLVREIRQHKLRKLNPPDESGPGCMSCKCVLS
Outline: as §1

[2] = test system: human lung cancer strain NCI-H441; assay type: cell-based
Outline: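 Proliferation was scored by […] measured after the reagent was added to cultures kept at 37°C in 5% carbon dioxide.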

[3] = ratio of KD for GDP-bound NRAS wild-type protein to KD for KRAS
[4] = ratio of KD for HRAS wild-type protein to KD for KRAS
[5] = ratio of the KD value with respect to GDP-bound NRAS wild-type protein to the KD value with respect to KRAS
[6] = ratio of the KD value with respect to HRAS wild-type protein to the KD value with respect to KRAS

Row | IC50 [2] | Compound | NRAS /KRAS [1, 3] | HRAS /KRAS (HRAS wild-type protein; [4]) | NRAS /KRAS [1, 5] | HRAS /KRAS (HRAS wild-type protein; [6]) | NRAS /KRAS ([1]; ratio of KD value for GDP-bound NRAS wild-type protein to KD value for KRAS (SPR)) | HRAS /KRAS (HRAS wild-type protein; ratio of KD value for HRAS wild-type protein to KD value for KRAS (SPR))
1 | 128 nM | CCO[C@@H]1C[C@H]2C(=O)NC3(CC(C)(C)C3)C(=O)N(C)[C@@H](C3CCCC3)C(=O)N(C)[C@H](C(=O)N(C)C)CC(=O)N(C)[C@@H]([C@H](C)OC)C(=O)N[C@@H]([C@@H](C)CC)C(=O)N3CCC[C@H]3C(=O)N(C)[C@H]3C/C=C\CCN(C3=O)[C@@H](Cc3ccc(C)cc3)C(=O)N(C)CC(=O)N[C@@H](CCc3ccc(C(F)(F)F)c(Cl)c3)C(=O)N2C1 [PP3201] | A (a compound having 10 or more and less than 20 is denoted as A) | A (a compound having 10 or more and less than 20 is denoted as A) | – | – | – | –
2 | 1.1 nM | CCCN1C(=O)CN(C)C(=O)CN(C)C(=O)[C@H]([C@@H](C)CC)NC(=O)[C@H](CC(C)C)N(C)C(=O)C[C@@H](C(=O)N(C)C)N(C)C(=O)[C@H](C2CCCC2)N(C)C(=O)C2(CCC2)NC(=O)[C@@H]2C[C@@H](OCC)CN2C(=O)[C@H](CCc2ccc(C(F)(F)F)c(Cl)c2)NC(=O)CN(C)C(=O)[C@@H]1Cc1ccc(C(F)(F)F)cc1 [PP0416] ([NMeL]I[Sar][Sar][NPrPhe(4-CF3)][Sar][hPhe(3-Cl-4-CF3)][Hyp](Et)[Ac4c][NMeGly(cPent)][NMeD]-NMe2; lactam N-11) | – | – | B (a compound having 3 or more and less than 10 is denoted as B) | C (A compound having a KD ratio of 0.1 or more and less than 3 is denoted as C) | – | –
3 | 8.8 nM | CCO[C@@H]1C[C@H]2C(=O)N(C)C3(CCCC3)C(=O)N(C)[C@@H](C3CCCC3)C(=O)N(C)[C@H](C(=O)N(C)C)CC(=O)N(C)[C@@H](C3CC3)C(=O)N[C@@H]([C@@H](C)CC)C(=O)N(C)CC(=O)N(C)[C@H]3C/C=C\CCN(C3=O)[C@@H](Cc3ccc(C)cc3)C(=O)N(C)CC(=O)N[C@@H](CCc3cc(F)c(C(F)(F)F)c(F)c3)C(=O)N2C1 [PP1808] | – | – | – | – | A (a compound having 10 or more and less than 20 is denoted as A) | B (a compound having 3 or more and less than 10 is denoted as B)
4 | 22.4 nM | CCCN(C)C(=O)[C@@H]1CC(=O)N(C)[C@@H](C2CC2)C(=O)N[C@@H]([C@@H](C)CC)C(=O)N(C)CC(=O)N(C)[C@H]2C/C=C\CCN(C2=O)[C@@H](Cc2ccc(C(F)(F)F)cc2)C(=O)N(C)CC(=O)N[C@@H](CCc2cc(F)c(C(F)(F)F)c(F)c2)C(=O)N2C[C@H](OCC)C[C@H]2C(=O)NC2(CCC2)C(=O)N(C)[C@@H](C2CCCC2)C(=O)N1C [PP1994] | – | – | AA (a compound having 20 or more is denoted as AA) | A (a compound having 10 or more and less than 20 is denoted as A) | – | –
5 | 5.4 nM | CCCN1C(=O)CN(C)C(=O)CN(C)C(=O)[C@H]([C@@H](C)CC)NC(=O)[C@H](CC(C)C)N(C)C(=O)C[C@@H](C(=O)N2CCOCC2)N(C)C(=O)[C@H](C2CCCC2)N(C)C(=O)C2(CCCC2)NC(=O)[C@@H]2CCCN2C(=O)[C@H](CCc2ccc(C(F)(F)F)c(Cl)c2)NC(=O)CN(C)C(=O)[C@@H]1Cc1ccc(F)cc1 [PP0214] ([NMeL]I[Sar][Sar][X26][Sar][hPhe(3-Cl-4-CF3)]P[Ac5c][NMeGly(cPent)][NMeD]-Morpholide; lactam N-11) | B (a compound having 3 or more and less than 10 is denoted as B) | C (A compound having a KD ratio of 0.1 or more and less than 3 is denoted as C) | – | – | – | –
6 | 10.8 nM | CCO[C@@H]1C[C@H]2C(=O)NC3(CC(C)(C)C3)C(=O)N(C)[C@@H](C3CCCC3)C(=O)N(C)[C@H](C(=O)N(C)C)CC(=O)N(C)[C@@H](C)C(=O)N[C@@H]([C@@H](C)CC)C(=O)N(C)CC(=O)N(C)[C@H]3CCCCCN(C3=O)[C@@H](Cc3ccc(C(F)(F)F)cc3)C(=O)N(C)CC(=O)N[C@@H](CCc3cc(F)c(C(F)(F)F)c(F)c3)C(=O)N2C1 [PP0723] | – | – | B (a compound having 3 or more and less than 10 is denoted as B) | B (a compound having 3 or more and less than 10 is denoted as B) | – | –
7 | 8.8 nM | CCO[C@@H]1C[C@H]2C(=O)NC3(CCC3)C(=O)N(C)[C@@H](C3CCCC3)C(=O)N(C)[C@H](C(=O)N(C)C)CC(=O)N(C)[C@@H](CC3CC3)C(=O)N[C@@H]([C@@H](C)CC)C(=O)N(C)CC(=O)N(C)[C@H]3CCCCCN(C3=O)[C@@H](Cc3ccc(C(F)(F)F)cc3)C(=O)N(C)CC(=O)N[C@@H](CCc3cc(F)c(C(F)(F)F)c(F)c3)C(=O)N2C1 [PP0667] | – | – | B (a compound having 3 or more and less than 10 is denoted as B) | B (a compound having 3 or more and less than 10 is denoted as B) | – | –
8 | 66.1 nM | CCO[C@@H]1C[C@H]2C(=O)NC3(CCC3)C(=O)N(C)[C@@H](C3CCCC3)C(=O)N(C)[C@H](C(=O)N(C)C)CC(=O)N(C)[C@@H](Cc3cccc(C)c3)C(=O)N[C@@H]([C@@H](C)CC)C(=O)N(C)CC(=O)N(C)[C@H]3CCCCCN(C3=O)[C@@H](Cc3ccc(C(F)(F)F)cc3)C(=O)N(C)CC(=O)N[C@@H](CCc3cc(F)c(C(F)(F)F)c(F)c3)C(=O)N2C1 [PP0942] | B (a compound having 3 or more and less than 10 is denoted as B) | B (a compound having 3 or more and less than 10 is denoted as B) | – | – | – | –
9 | 2.8 nM | CCCN1C(=O)[C@@H]2CCN2C(=O)CN(C)C(=O)[C@H]([C@@H](C)CC)NC(=O)[C@H](CC(C)C)N(C)C(=O)C[C@@H](C(=O)N2CCOCC2)N(C)C(=O)[C@H](C2CCCC2)N(C)C(=O)C2(CCC2)NC(=O)[C@@H]2C[C@@H](OCC)CN2C(=O)[C@H](CCc2ccc(C(F)(F)F)c(Cl)c2)NC(=O)CN(C)C(=O)[C@@H]1Cc1ccc(C(F)(F)F)cc1 [PP0411] ([NMeL]I[Sar][Aze][NPrPhe(4-CF3)][Sar][hPhe(3-Cl-4-CF3)][Hyp](Et)[Ac4c][NMeGly(cPent)][NMeD]-Morpholide; lactam N-11) | – | – | C (A compound having a KD ratio of 0.1 or more and less than 3 is denoted as C) | C (A compound having a KD ratio of 0.1 or more and less than 3 is denoted as C) | – | –
10 | 9.3 nM | C#CC[C@H]1C(=O)N[C@@H]([C@@H](C)CC)C(=O)N(C)CC(=O)N(C)[C@H]2C/C=C\CCN(C2=O)[C@@H](Cc2ccc(C(F)(F)F)cc2)C(=O)N(C)CC(=O)N[C@@H](CCc2ccc(C(F)(F)F)c(OC)c2)C(=O)N2C[C@H](OCC)C[C@H]2C(=O)NC2(CC(C)(C)C2)C(=O)N(C)[C@@H](C2CCCC2)C(=O)N(C)[C@H](C(=O)N(C)CCC)CC(=O)N1C [PP2053] | – | – | A (a compound having 10 or more and less than 20 is denoted as A) | A (a compound having 10 or more and less than 20 is denoted as A) | – | –
11 | 40.9 nM | CCCN1C(=O)[C@@H]2CCN2C(=O)CN(C)C(=O)[C@H](C(CC)CC)NC(=O)[C@H](CC(C)C)N(C)C(=O)C[C@@H](C(=O)N2CCOCC2)N(C)C(=O)[C@H](C2CCCC2)N(C)C(=O)C2(CCCC2)NC(=O)[C@@H]2CCCN2C(=O)[C@H](CCc2cc(F)c(C(F)(F)F)c(F)c2)NC(=O)CN(C)C(=O)[C@@H]1Cc1ccc(C(F)(F)F)cc1 [PP0804] ([NMeL][Nva(3-Et)][Sar][Aze][NPrPhe(4-CF3)][Sar][hPhe(3,5-F2-4-CF3)]P[Ac5c][NMeGly(cPent)][NMeD]-Morpholide; lactam N-11) | C (A compound having a KD ratio of 0.1 or more and less than 3 is denoted as C) | B (a compound having 3 or more and less than 10 is denoted as B) | – | – | – | –
